Source: publication PMC10165934 (Emerging Microbes & Infections, 2023)
Like-named read-outs stand apart in the source and are kept apart here.

Key:
[1] = tested on: SARS-CoV-2; conditions: read-out: antiviral EC50; ref 37 (Basu et al.); cited from earlier work
[2] = biological target: T1, SARS-CoV-2 NSP14 MTase (Severe acute respiratory syndrome coronavirus 2, UniProt P0DTD1); conditions: read-out: anti-MTase IC50; ref 37 (Basu et al.); cited from earlier work
[3] = tested on: SARS-CoV-2; conditions: read-out: antiviral EC50; ref 39 (Kasprzyk et al.); cited from earlier work
[4] = biological target: SARS-CoV-2 NSP16 2’-O MTase (Severe acute respiratory syndrome coronavirus 2, UniProt P0DTD1); test: FP-based FL-NAH displacement assay, NSP16; assay type: binding; conditions: NSP16 0.5 µM, 96-well plate
[5] = biological target: T2, NS5 MTase of ZIKV (Zika virus, UniProt Q32ZE1); test: FP-based FL-NAH displacement assay, ZIKV NS5; assay type: binding; conditions: ZIKV NS5 2.5 µM, 96-well plate
T2 sequence (Q32ZE1 2517-2790): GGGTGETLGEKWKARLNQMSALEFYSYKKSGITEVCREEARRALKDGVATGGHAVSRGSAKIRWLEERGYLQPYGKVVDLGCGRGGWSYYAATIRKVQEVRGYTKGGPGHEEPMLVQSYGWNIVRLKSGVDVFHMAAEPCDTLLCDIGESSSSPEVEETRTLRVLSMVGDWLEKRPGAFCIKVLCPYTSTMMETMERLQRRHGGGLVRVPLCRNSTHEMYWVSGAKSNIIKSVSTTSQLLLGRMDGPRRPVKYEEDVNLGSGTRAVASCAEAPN

[6] = biological target: T1, SARS-CoV-2 NSP14 MTase; test: FP-based FL-NAH displacement assay; assay type: binding
[7] = tested on: SARS-CoV-2 WA strain; test: Checkerboard combination assay; assay type: cell-based; conditions: Vero E6 cells
[8] = biological target: T1, SARS-CoV-2 NSP14 MTase; conditions: read-out: anti-MTase IC50; ref 39 (Kasprzyk et al.); cited from earlier work

## Inauhzin
[1]
  EC50: 13 µM
[2]
  IC50: 12.9 µM

## O=C(CCCN1CCC(O)(c2cccc(C(F)(F)F)c2)CC1)c1ccc(F)cc1 [Trifluperidol]
[1]
  EC50: 59.8 µM
[2]
  IC50: 23 µM

## Nc1c(S(=O)(=O)O)cc(Nc2ccc(Nc3nc(Cl)nc(Nc4cccc(S(=O)(=O)O)c4)n3)c(S(=O)(=O)O)c2)c2c1C(=O)c1ccccc1C2=O [Reactive blue 2]
[3]
  EC50: 16.3 µM

## C[S+](CC[C@H](N)C(=O)[O-])C[C@H]1O[C@@H](n2cnc3c(N)ncnc32)[C@H](O)[C@@H]1O (some centres unmarked) [SAM, S-adenosylmethionine]
[4]
  quenching of FP from FL-NAH binding to NSP16: quenched
[5]
  quenching of FP from FL-NAH binding to the ZIKV NS5 MTase: quenched
[6]
  IC50: 25 µM

## Nc1ncnc2c1ncn2[C@@H]1O[C@H](CSCC[C@H](N)C(=O)O)[C@@H](O)[C@H]1O [SAH, S-adenosyl-L-homocysteine]
[4]
  quenching of FP from FL-NAH binding to NSP16: quenched
[5]
  quenching of FP from FL-NAH binding to the ZIKV NS5 MTase: quenched

## CC(C)(C)[C@H](NC(=O)C(F)(F)F)C(=O)N1C[C@H]2[C@@H]([C@H]1C(=O)N[C@H](C#N)C[C@@H]1CCNC1=O)C2(C)C [nirmatrelvir]
[7]
  EC50 shift in the presence of NSC111552 (1.67 µM): ~1.8 fold

## CCC(CC)COC(=O)[C@H](C)N[P@](=O)(OC[C@H]1O[C@@](C#N)(c2ccc3c(N)ncnn23)[C@H](O)[C@@H]1O)Oc1ccccc1 [remdesivir]
[7]
  EC50 decrease in the presence of NSC111552 ([…]): about 2.4 fold

## Cc1cc(-c2ccc(/N=N/c3ccc4c(S(=O)(=O)O)cc(S(=O)(=O)O)c(N)c4c3O)c(C)c2)ccc1/N=N/c1ccc2c(S(=O)(=O)O)cc(S(=O)(=O)O)c(N)c2c1O [Evans Blue]
[3]
  EC50: 31 µM
[8]
  IC50: 4.9 µM

## N#Cc1ccc(N2N=C3c4ccc(C(=O)O)cc4CC[C@@H]3[C@@H]2C2CCCC2)cc1Cl [PF-03882845]
[1]
  EC50: 11 µM

## NCCOc1cc(C(=O)Nc2cc(OCCN)c3ccccc3n2)nc(C(=O)Nc2cc(OCCN)c3ccccc3n2)c1 [Pyridostatin]
[3]
  EC50: 3.6 µM
[8]
  IC50: 4.1 µM
